Experimental data taken from the supplement of paper PMC13380429.

Tests used:
[1] = tested on: A549-ACE2 infected with SARS-CoV-2; test: cell count relative to DMSO; higher = less toxic; conditions: 24 h
[2] = tested on: A549-ACE2 infected with SARS-CoV-2; test: SARS-CoV-2 infection rate relative to DMSO; higher = more infection; conditions: 24 h
Vero E6 [3] = test: relative viability EC50 (midpoint between 100% and the lowest measured viability); higher = less toxic; conditions: 72 h
Caco-2 [4] = test: as above; conditions: 72 h
Calu-3 [5] = test: as above; conditions: 72 h
U2OS [6] = test: as above; conditions: 72 h
Vero E6 [7] = test: drug sensitivity score (DSS) for viability; higher = more toxic; extreme values may be limits of the assay; conditions: 72 h
Caco-2 [8] = test: as above; conditions: 72 h
HepG2 [9] = test: as above; conditions: 72 h
Calu-3 [10] = test: as above; conditions: 72 h
U2OS [11] = test: as above; conditions: 72 h
[12] = tested on: A549-ACE2 infected with SARS-CoV-2; test: morphology score (similarity to uninfected cells); higher = more like uninfected cells; conditions: 24 h
A549-ACE2 [13] = test: drug-induced phospholipidosis relative to tamoxifen; higher = more phospholipidosis
Vero E6 [14] = test: cell viability relative to DMSO; higher = less toxic; conditions: 72 h
Caco-2 [15] = test: as above; conditions: 72 h
HepG2 [16] = test: as above; conditions: 72 h
Calu-3 [17] = test: as above; conditions: 72 h
U2OS [18] = test: as above; conditions: 72 h
A549-ACE2 [19] = test: phospholipidosis EC50; higher = less potent phospholipidosis inducer
HepG2 [20] = test: relative viability EC50 (midpoint between 100% and the lowest measured viability); higher = less toxic; conditions: 72 h

CC(=O)c1cc([N+](=O)[O-])c(Sc2ccc(F)cc2F)s1
Conditions	SARS-CoV-2 infection rate, [2] [%]	cell count, [1] [%]	cell viability, Caco-2 [15] [%]	cell viability, Calu-3 [17] [%]	cell viability, HepG2 [16] [%]	cell viability, U2OS [18] [%]	cell viability, Vero E6 [14] [%]	morphology score, [12]
1 nM	–	–	98	91	110	95.3	108	–
10 nM	–	–	96.6	95.3	105	99.3	98.8	–
100 nM	–	–	103	105	106	95.2	101	–
0.3 µM	98	99	–	–	–	–	–	0.06
1000 nM	–	–	87.4	98.6	100	101	98.1	–
3 µM	106	100	–	–	–	–	–	-0.18
10 µM	71	81	–	–	–	–	–	0.38
10000 nM	–	–	31.8	101	58.5	80	95.6	–
30 µM	55	58	–	–	–	–	–	0.17

Conditions	drug sensitivity score	relative viability EC50 [µM]
Caco-2 [4]	–	1.81
Caco-2 [8]	5.8	–
Calu-3 [5]	–	> 10
Calu-3 [10]	0	–
HepG2 [9]	2.1	–
U2OS [6]	–	> 10
U2OS [11]	0.5	–
Vero E6 [3]	–	> 10
Vero E6 [7]	0	–

drug-induced phospholipidosis [%], A549-ACE2 [13]
Conditions	0.3 µM	0.833333 µM	3.33333 µM	6.66667 µM	30 µM
24 h	3.19	-2.16	10.1	11.8	19.3
48 h	2.73	-1.61	2.36	16.5	–
72 h	0.714	-1.68	-2.13	11.8	23.5

CC(C)c1ccc(C(=O)c2cccs2)c(SCCCCCCCCN(C)C)n1
Conditions	SARS-CoV-2 infection rate [%]	cell count [%]	cell viability [%]	morphology score	phospholipidosis EC50 [µM]
A549-ACE2 [19], 24 h	–	–	–	–	2.88
A549-ACE2 [19], 48 h	–	–	–	–	2.9
A549-ACE2 [19], 72 h	–	–	–	–	4.11
Caco-2 [15], 1 nM	–	–	106	–	–
Caco-2 [15], 10 nM	–	–	91.6	–	–
Caco-2 [15], 100 nM	–	–	97.6	–	–
Caco-2 [15], 1000 nM	–	–	94.6	–	–
Caco-2 [15], 10000 nM	–	–	47.3	–	–
Calu-3 [17], 1 nM	–	–	101	–	–
Calu-3 [17], 10 nM	–	–	120	–	–
Calu-3 [17], 100 nM	–	–	97.4	–	–
Calu-3 [17], 1000 nM	–	–	106	–	–
Calu-3 [17], 10000 nM	–	–	27.9	–	–
HepG2 [16], 1 nM	–	–	97.9	–	–
HepG2 [16], 10 nM	–	–	94.6	–	–
HepG2 [16], 100 nM	–	–	109	–	–
HepG2 [16], 1000 nM	–	–	103	–	–
HepG2 [16], 10000 nM	–	–	29.4	–	–
U2OS [18], 1 nM	–	–	99.4	–	–
U2OS [18], 10 nM	–	–	95.9	–	–
U2OS [18], 100 nM	–	–	101	–	–
U2OS [18], 1000 nM	–	–	98.9	–	–
U2OS [18], 10000 nM	–	–	71.6	–	–
Vero E6 [14], 1 nM	–	–	100	–	–
Vero E6 [14], 10 nM	–	–	99.8	–	–
Vero E6 [14], 100 nM	–	–	101	–	–
Vero E6 [14], 1000 nM	–	–	94.6	–	–
Vero E6 [14], 10000 nM	–	–	78.4	–	–
[1], 0.1 µM	–	98	–	–	–
[1], 0.3 µM	–	101	–	–	–
[1], 1 µM	–	111	–	–	–
[1], 3 µM	–	123	–	–	–
[2], 0.1 µM	99	–	–	–	–
[2], 0.3 µM	95	–	–	–	–
[2], 1 µM	74	–	–	–	–
[2], 3 µM	23	–	–	–	–
[12], 0.1 µM	–	–	–	-0.04	–
[12], 0.3 µM	–	–	–	0.17	–
[12], 1 µM	–	–	–	0.57	–
[12], 3 µM	–	–	–	0.88	–

Conditions	drug sensitivity score	relative viability EC50 [µM]
Caco-2 [4]	–	2.32
Caco-2 [8]	3.7	–
Calu-3 [5]	–	3.55
Calu-3 [10]	3.6	–
HepG2 [9]	3.6	–
HepG2 [20]	–	3.39
U2OS [11]	1.3	–
Vero E6 [3]	–	> 10
Vero E6 [7]	1.4	–

drug-induced phospholipidosis [%], A549-ACE2 [13]
Conditions	0.3 µM	0.833333 µM	3.33333 µM	6.66667 µM	10 µM	30 µM
24 h	6.35	10.2	76.1	105	129	33.4
48 h	4.72	6.5	79.5	112	127	–
72 h	0.841	8.09	57.5	114	131	–
